In patent EP0240392A1, “Compounds of the cyclophosphazene type, process for their preparation and pharmaceutical preparation containing them” (CENTRE NATIONAL DE LA RECHERCHE SCIENTIFIQUE (CNRS), priority 1986, dated 1987):
Marks after values point to notes of the source that are not given here.

Key:
MELANOME B16 = assay: Antitumour activity on B16 melanoma implanted i.m. in mice; assay type: in vivo, souris C57B1/6
Excerpt: (§1) Les tests d'activité antitumorale ont été conduits au sein du Screening and Pharmacology Group de l'E.O.R.T.C., implanté à l'Institut Mario Negri de Milan.
(§2) Ces essais ont été conduits soit en mono-injection à différentes doses au jour J+1 suivant la greffe de la tumeur, soit en poly-injections chroniques Q1D, soit en protocoles Q4D.
L'activité antitumorale est mesurée par le rapport T/C %, T (en jours) étant le durée moyenne de vie des souris traitées, C (en jours) étant la durée moyenne de vie des souris témoins.
L'effet thérapeutique est considéré comme significatif quant T/C % est supérieur ou égal à 125.

[1] = test system: RETICULO SARCOME M5076 MURIN; assay: Antitumour activity on murine M5076 reticulum sarcoma implanted i.m. in mice; assay type: in vivo, souris C57Bl/6; details: for Poids corporel (g±S.E.) / Poids de la rate (mg±S.E.) / Poids de la tumeur (g±S.E.) / Poids du foie (g±S.E.): jour 23
Excerpt: as §1, §2

[2] = 200 mg/kg i.p. j 1,5,9, jour 27
[3] = 300 mg/kg i.p. j 1,5,9, jour 27
[4] = 100 mg/kg i.p. x j 1-9, jour 21
[5] = 150 mg/kg i.p. x j 1,5,9, jour 14
[6] = 150 mg/kg i.p. x j 1,5,9, jour 21
[7] = 150 mg/kg i.p. x j 1-9, jour 21
[8] = 200 mg/kg i.p. x j 1,5,9, jour 14
[9] = 200 mg/kg i.p. x j 1,5,9, jour 21

## C(CCN1CCCNP12=NP(N1CC1)(N1CC1)=NP(N1CC1)(N1CC1)=N2)CN1CCCNP12=NP(N1CC1)(N1CC1)=NP(N1CC1)(N1CC1)=N2 (stereo not shown) [SPM]
MELANOME B16; 100 mg/kg i.p. j 1-9
  T/C (%): 103%
MELANOME B16; 100 mg/kg i.p. j 1-9, jour 17
  Volume moyen de la tumeur (cm^3 ± S.E.): 1,01±0,15 cm^3
MELANOME B16; 100 mg/kg i.p. j 1-9, jour 20
  Volume moyen de la tumeur (cm^3 ± S.E.): 1,71±0,13* cm^3
MELANOME B16; 100 mg/kg i.p. j 1-9, jour 24
  Volume moyen de la tumeur (cm^3 ± S.E.): 3,39±0,34* cm^3
MELANOME B16; 100 mg/kg i.p. j 1-9, jour 27
  Volume moyen de la tumeur (cm^3 ± S.E.): 3,75±0,29 cm^3
  nombre de souris vivantes/total: 9/10
MELANOME B16; 200 mg/kg i.p. j 1,5,9
  T/C (%): 120%
MELANOME B16; 200 mg/kg i.p. j 1,5,9, jour 13
  Volume moyen de la tumeur (cm^3 ± S.E.): 0,52±0,08* cm^3
MELANOME B16; 200 mg/kg i.p. j 1,5,9, jour 17
  Volume moyen de la tumeur (cm^3 ± S.E.): 1,17±0,14* cm^3
MELANOME B16; 200 mg/kg i.p. j 1,5,9, jour 20
  Volume moyen de la tumeur (cm^3 ± S.E.): 1,66±0,15* cm^3
MELANOME B16; 200 mg/kg i.p. j 1,5,9, jour 24
  Volume moyen de la tumeur (cm^3 ± S.E.): 3,72±0,29* cm^3
MELANOME B16; [2]
  Volume moyen de la tumeur (cm^3 ± S.E.): 4,98±0,56 cm^3
  nombre de souris vivantes/total: 8/10
MELANOME B16; 200 mg/kg i.p. j 1-9
  T/C (%): 138%
MELANOME B16; 200 mg/kg i.p. j 1-9, jour 20
  Volume moyen de la tumeur (cm^3 ± S.E.): 0,12±0,08* cm^3
MELANOME B16; 200 mg/kg i.p. j 1-9, jour 24
  Volume moyen de la tumeur (cm^3 ± S.E.): 1,22±0,17* cm^3
MELANOME B16; 200 mg/kg i.p. j 1-9, jour 27
  Volume moyen de la tumeur (cm^3 ± S.E.): 2,06±0,23 cm^3
  nombre de souris vivantes/total: 9/9
MELANOME B16; 300 mg/kg i.p. j 1,5,9
  T/C (%): 104%
MELANOME B16; 300 mg/kg i.p. j 1,5,9, jour 13
  Volume moyen de la tumeur (cm^3 ± S.E.): 0,44±0,06* cm^3
MELANOME B16; 300 mg/kg i.p. j 1,5,9, jour 17
  Volume moyen de la tumeur (cm^3 ± S.E.): 1,72±0,12* cm^3
MELANOME B16; 300 mg/kg i.p. j 1,5,9, jour 20
  Volume moyen de la tumeur (cm^3 ± S.E.): 2,67±0,24* cm^3
MELANOME B16; 300 mg/kg i.p. j 1,5,9, jour 24
  Volume moyen de la tumeur (cm^3 ± S.E.): 5,36±0,42* cm^3
MELANOME B16; [3]
  Volume moyen de la tumeur (cm^3 ± S.E.): 5,96±0,22 cm^3
  nombre de souris vivantes/total: 6/10
[1]; 50 mg/kg i.p. x j 1-9, jour 14
  Volume moyen de la tumeur (cm^3 ± S.E.): 0,38±0,01 cm^3
  nombre de souris avec tumeur/total: 4/10
[1]; 50 mg/kg i.p. x j 1-9, jour 21
  Volume moyen de la tumeur (cm^3 ± S.E.): 2,03±0,17 cm^3
  nombre de souris avec tumeur/total: 9/9
[1]; 50 mg/kg i.p. x j 1-9
  Poids corporel (g±S.E.): 20,05±0,60 g
  Poids de la rate (mg±S.E.): 206,8±12,0 mg
  Poids de la tumeur (g±S.E.): 3,4033±0,26 g
  Poids du foie (g±S.E.): 1,6089±0,10 g
[1]; 100 mg/kg i.p. x j 1-9, jour 14
  nombre de souris avec tumeur/total: - (0/10)
[1]; [4]
  Volume moyen de la tumeur (cm^3 ± S.E.): 0,92±0,03 cm^3
  nombre de souris avec tumeur/total: 12/12
[1]; 100 mg/kg i.p. x j 1-9
  Poids corporel (g±S.E.): 20,22±0,37 g
  Poids de la rate (mg±S.E.): 137,9±5,04 mg
  Poids de la tumeur (g±S.E.): 2,1947±0,07 g
  Poids du foie (g±S.E.): 1,1750±0,03 g
[1]; [5]
  Volume moyen de la tumeur (cm^3 ± S.E.): 0,41±0,04 cm^3
  nombre de souris avec tumeur/total: 4/10
[1]; [6]
  Volume moyen de la tumeur (cm^3 ± S.E.): 2,23±0,16 cm^3
  nombre de souris avec tumeur/total: 10/10
[1]; 150 mg/kg i.p. x j 1,5,9
  Poids corporel (g±S.E.): 21,55±0,29 g
  Poids de la rate (mg±S.E.): 240,7±17,1 mg
  Poids de la tumeur (g±S.E.): 3,5869±0,18 g
  Poids du foie (g±S.E.): 1,7270±0,10 g
[1]; 150 mg/kg i.p. x j 1-9, jour 14
  nombre de souris avec tumeur/total: - (0/10)
[1]; [7]
  Volume moyen de la tumeur (cm^3 ± S.E.): 0,72±0 cm^3
  nombre de souris avec tumeur/total: 1/10
[1]; 150 mg/kg i.p. x j 1-9
  Poids corporel (g±S.E.): 17,55±0,70 g
  Poids de la rate (mg±S.E.): 103,0±6,02 mg
  Poids de la tumeur (g±S.E.): 1,0795±0,11 g
  Poids du foie (g±S.E.): 1,0190±0,03 g
[1]; [8]
  Volume moyen de la tumeur (cm^3 ± S.E.): 0,36±0,04 cm^3
  nombre de souris avec tumeur/total: 2/10
[1]; [9]
  Volume moyen de la tumeur (cm^3 ± S.E.): 2,02±0,26 cm^3
  nombre de souris avec tumeur/total: 10/10
[1]; 200 mg/kg i.p. x j 1,5,9
  Poids corporel (g±S.E.): 21,05±0,39 g
  Poids de la rate (mg±S.E.): 208,6± 8,8 mg
